Measured values published in patent US20230085307A1, “PYRIDAZINONE COMPOUND AND HERBICIDE” (NISSAN CHEMICAL CORPORATION, priority 2019, published 2023).

These molecules were tested on late watergrass (assay: Test Example 1: herbicidal activity, application before weed generation under submerged conditions (Table 16, symbol A)). Conditions: 320 g/ha applied herbicide.
Format: in vivo, late watergrass (Echinochloa oryzicola)
How it was run: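 Alluvial soil was flooded to 4 cm depth, weed seeds were sown mixed and 2.5-leaf rice seedlings were transplanted. On sowing day, the compound's emulsion, diluted in water to a set dose, was applied to the water surface. Plants grew at 25–30 °C and were scored 0–5 after three weeks.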
In the case of `Cc1nn(C)c(=O)c(-c2c(-c3ccc(OC(F)F)cc3)sc3ccc(F)cc23)c1OC(=S)Sc1ccccc1` [2-298], the “Herbicidal effect on A: late watergrass (grade 0-5)” value is reported as 3 (Herbicidal rate of 40% or more and less than 70%).
`Cc1nn(C)c(=O)c(-c2c(-c3ccc(OC(F)F)cc3)sc3ccc(F)cc23)c1OCC(=O)c1ccccc1` [2-305] was tested, and the “Herbicidal effect on A: late watergrass (grade 0-5)” value was 3 (Herbicidal rate of 40% or more and less than 70%).

Each molecule was assayed on Italian ryegrass (assay: Test Example 4: herbicidal effect by soil treatment (Table 19, symbol K)). Conditions: amount of applied herbicide 320 g/ha.
Format: in vivo, Italian ryegrass (Lolium multiflorum)
How it was run: (§1)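 Step 1: sow seeds in sterilized diluvial soil, cover ~1.5 cm. Step 2: spray diluted emulsion onto soil surface at predetermined rate. Step 3: greenhouse, 25–30° C, three weeks. Step 4: grade effect on each plant by earlier criteria.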
`Cc1nn(C)c(=O)c(-c2c(-c3ccc(OC(F)F)cc3)sc3ccc(F)cc23)c1OC(=S)Sc1ccccc1` [2-298] was tested, and the “herbicidal effect on K: Italian ryegrass” value was 0 (Herbicidal rate of 5% or less (almost no effect)).
For `Cc1nn(C)c(=O)c(-c2c(-c3ccc(OC(F)F)cc3)sc3ccc(F)cc23)c1OCC(=O)c1ccccc1` [2-305], the “herbicidal effect on K: Italian ryegrass” value was 0 (Herbicidal rate of 5% or less (almost no effect)).

The molecules below were run on windgrass (assay: Test Example 4: herbicidal effect by soil treatment (Table 19, symbol L)). Conditions: amount of applied herbicide 320 g/ha.
Format: in vivo, windgrass (Apera spica-venti)
How it was run: as §1
For `Cc1nn(C)c(=O)c(-c2c(-c3ccc(OC(F)F)cc3)sc3ccc(F)cc23)c1OC(=S)Sc1ccccc1` [2-298], the “herbicidal effect on L: windgrass” value was 0 (Herbicidal rate of 5% or less (almost no effect)).
For `Cc1nn(C)c(=O)c(-c2c(-c3ccc(OC(F)F)cc3)sc3ccc(F)cc23)c1OCC(=O)c1ccccc1` [2-305], the “herbicidal effect on L: windgrass” value was 0 (Herbicidal rate of 5% or less (almost no effect)).

The molecules below were run on lambsquarters (assay: Test Example 4: herbicidal effect by soil treatment (Table 19, symbol O)). Conditions: amount of applied herbicide 320 g/ha.
Format: in vivo, lambsquarters (Chenopodium album)
How it was run: as §1
With `Cc1nn(C)c(=O)c(-c2c(-c3ccc(OC(F)F)cc3)sc3ccc(F)cc23)c1OC(=S)Sc1ccccc1` [2-298] the “herbicidal effect on O: lambsquarters” value was 3 (Herbicidal rate of 40% or more and less than 70%).
`Cc1nn(C)c(=O)c(-c2c(-c3ccc(OC(F)F)cc3)sc3ccc(F)cc23)c1OCC(=O)c1ccccc1` [2-305] was tested, and the “herbicidal effect on O: lambsquarters” value was 3 (Herbicidal rate of 40% or more and less than 70%).

These molecules were tested on velvetleaf (assay: Test Example 4: herbicidal effect by soil treatment (Table 19, symbol M)). Conditions: amount of applied herbicide 320 g/ha.
Format: in vivo, velvetleaf (Abutilon theophrasti)
How it was run: as §1
`Cc1nn(C)c(=O)c(-c2c(-c3ccc(OC(F)F)cc3)sc3ccc(F)cc23)c1OC(=S)Sc1ccccc1` [2-298] was tested, and the “herbicidal effect on M: velvetleaf” value was 2 (Herbicidal rate of 20% or more and less than 40%).
`Cc1nn(C)c(=O)c(-c2c(-c3ccc(OC(F)F)cc3)sc3ccc(F)cc23)c1OCC(=O)c1ccccc1` [2-305] was tested, and the “herbicidal effect on M: velvetleaf” value was 1 (Herbicidal rate of 5% or more and less than 20%).

Each molecule was assayed on barnyard grass (assay: Test Example 3: herbicidal effect by foliage application, Wagner pot (Table 18, symbol H)). Conditions: amount of applied herbicide 320 g/ha.
Format: in vivo, barnyard grass (Echinochloa crus-galli)
How it was run: (§2)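 Plants were sown in alluvial soil held under 0.1–0.5 cm standing water and grown 14 days in a greenhouse at 25–30 °C. An emulsifiable formulation, water-diluted to the set dose, was then sprayed onto the foliage, and effects were scored three weeks later using previously defined criteria.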
With `Cc1nn(C)c(=O)c(-c2c(-c3ccc(OC(F)F)cc3)sc3ccc(F)cc23)c1OC(=S)Sc1ccccc1` [2-298] the “herbicidal effect on H: barnyard grass” value was 5 (Herbicidal rate of 90% or more (almost completely withered)).
`Cc1nn(C)c(=O)c(-c2c(-c3ccc(OC(F)F)cc3)sc3ccc(F)cc23)c1OCC(=O)c1ccccc1` [2-305] was tested, and the “herbicidal effect on H: barnyard grass” value was 5 (Herbicidal rate of 90% or more (almost completely withered)).

Each molecule was assayed on blackgrass (assay: Test Example 5: herbicidal effect by foliage application, plastic box (Table 20, symbol J)). Conditions: foliage application, AAH 320 g/ha, evaluated three weeks after application.
Format: in vivo, blackgrass (Alopecurus myosuroides)
How it was run: (§3)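 Foliar spray test: emulsion formulation diluted in water to a set application rate, sprayed onto 14-day-old plants raised in diluvial soil at 25° C to 30° C under glass. Both herbicidal effect and crop effect rated visually three weeks later.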
`Cc1nn(C)c(=O)c(-c2c(-c3ccc(OC(F)F)cc3)sc3ccc(F)cc23)c1OC(=S)Sc1ccccc1` [2-298] was tested, and the “J: blackgrass, herbicidal effect (criteria 0-5)” value was 4 (Herbicidal rate of 70% or more and less than 90%).
In the case of `Cc1nn(C)c(=O)c(-c2c(-c3ccc(OC(F)F)cc3)sc3ccc(F)cc23)c1OCC(=O)c1ccccc1` [2-305], the “J: blackgrass, herbicidal effect (criteria 0-5)” value is reported as 0 (Herbicidal rate of 5% or less (almost no effect)).

What follows are molecules tested on redroot pigweed (assay: Test Example 5: herbicidal effect by foliage application, plastic box (Table 20, symbol N)). Conditions: foliage application, AAH 320 g/ha, evaluated three weeks after application.
Format: in vivo, redroot pigweed (Amaranthus retroflexus)
How it was run: as §3
In the case of `Cc1nn(C)c(=O)c(-c2c(-c3ccc(OC(F)F)cc3)sc3ccc(F)cc23)c1OC(=S)Sc1ccccc1` [2-298], the “N: redroot pigweed, herbicidal effect (criteria 0-5)” value is reported as 5 (Herbicidal rate of 90% or more (almost completely withered)).
For `Cc1nn(C)c(=O)c(-c2c(-c3ccc(OC(F)F)cc3)sc3ccc(F)cc23)c1OCC(=O)c1ccccc1` [2-305], the “N: redroot pigweed, herbicidal effect (criteria 0-5)” value was 5 (Herbicidal rate of 90% or more (almost completely withered)).

Each molecule was assayed on blackgrass (assay: Test Example 4: herbicidal effect by soil treatment (Table 19, symbol J)). Conditions: amount of applied herbicide 320 g/ha.
Format: in vivo, blackgrass (Alopecurus myosuroides)
How it was run: as §1
In the case of `Cc1nn(C)c(=O)c(-c2c(-c3ccc(OC(F)F)cc3)sc3ccc(F)cc23)c1OC(=S)Sc1ccccc1` [2-298], the “herbicidal effect on J: blackgrass” value is reported as 0 (Herbicidal rate of 5% or less (almost no effect)).
In the case of `Cc1nn(C)c(=O)c(-c2c(-c3ccc(OC(F)F)cc3)sc3ccc(F)cc23)c1OCC(=O)c1ccccc1` [2-305], the “herbicidal effect on J: blackgrass” value is reported as 0 (Herbicidal rate of 5% or less (almost no effect)).

These molecules were tested on Italian ryegrass (assay: Test Example 5: herbicidal effect by foliage application, plastic box (Table 20, symbol K)). Conditions: foliage application, AAH 320 g/ha, evaluated three weeks after application.
Format: in vivo, Italian ryegrass (Lolium multiflorum)
How it was run: as §3
With `Cc1nn(C)c(=O)c(-c2c(-c3ccc(OC(F)F)cc3)sc3ccc(F)cc23)c1OC(=S)Sc1ccccc1` [2-298] the “K: Italian ryegrass, herbicidal effect (criteria 0-5)” value was 5 (Herbicidal rate of 90% or more (almost completely withered)).
For `Cc1nn(C)c(=O)c(-c2c(-c3ccc(OC(F)F)cc3)sc3ccc(F)cc23)c1OCC(=O)c1ccccc1` [2-305], the “K: Italian ryegrass, herbicidal effect (criteria 0-5)” value was 4 (Herbicidal rate of 70% or more and less than 90%).

These molecules were tested on velvetleaf (assay: Test Example 5: herbicidal effect by foliage application, plastic box (Table 20, symbol M)). Conditions: foliage application, AAH 320 g/ha, evaluated three weeks after application.
Format: in vivo, velvetleaf (Abutilon theophrasti)
How it was run: as §3
With `Cc1nn(C)c(=O)c(-c2c(-c3ccc(OC(F)F)cc3)sc3ccc(F)cc23)c1OC(=S)Sc1ccccc1` [2-298] the “M: velvetleaf, herbicidal effect (criteria 0-5)” value was 5 (Herbicidal rate of 90% or more (almost completely withered)).
`Cc1nn(C)c(=O)c(-c2c(-c3ccc(OC(F)F)cc3)sc3ccc(F)cc23)c1OCC(=O)c1ccccc1` [2-305] was tested, and the “M: velvetleaf, herbicidal effect (criteria 0-5)” value was 5 (Herbicidal rate of 90% or more (almost completely withered)).

The molecules below were run on persian speedwell (assay: Test Example 4: herbicidal effect by soil treatment (Table 19, symbol R)). Conditions: amount of applied herbicide 320 g/ha.
Format: in vivo, Persian speedwell (Veronica persica)
How it was run: as §1
In the case of `Cc1nn(C)c(=O)c(-c2c(-c3ccc(OC(F)F)cc3)sc3ccc(F)cc23)c1OC(=S)Sc1ccccc1` [2-298], the “herbicidal effect on R: persian speedwell” value is reported as 1 (Herbicidal rate of 5% or more and less than 20%).
In the case of `Cc1nn(C)c(=O)c(-c2c(-c3ccc(OC(F)F)cc3)sc3ccc(F)cc23)c1OCC(=O)c1ccccc1` [2-305], the “herbicidal effect on R: persian speedwell” value is reported as 3 (Herbicidal rate of 40% or more and less than 70%).

The molecules below were run on late watergrass (assay: Test Example 2: herbicidal activity, application during weed generation under submerged conditions (Table 17, symbol A)). Conditions: AAH 320 g/ha; application during weed generation, submerged conditions.
Format: in vivo, late watergrass (Echinochloa oryzicola)
How it was run: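 Effect on each weed is rated three weeks post-treatment, using the same scoring criteria as the preceding test. Plants grow from mixed-sown seed in flooded alluvial soil (4 cm water) at 25° C. to 30° C., and are treated at one to two leaves with diluted emulsion dropped onto the water.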
For `Cc1nn(C)c(=O)c(-c2c(-c3ccc(OC(F)F)cc3)sc3ccc(F)cc23)c1OC(=S)Sc1ccccc1` [2-298], the “herbicidal effect rating, A: late watergrass” value was 3 (Herbicidal rate of 40% or more and less than 70%).
For `Cc1nn(C)c(=O)c(-c2c(-c3ccc(OC(F)F)cc3)sc3ccc(F)cc23)c1OCC(=O)c1ccccc1` [2-305], the “herbicidal effect rating, A: late watergrass” value was 3 (Herbicidal rate of 40% or more and less than 70%).

These molecules were tested on Chinese sprangletop (assay: Test Example 3: herbicidal effect by foliage application, Wagner pot (Table 18, symbol D)). Conditions: amount of applied herbicide 320 g/ha.
Format: in vivo, chinese sprangletop (Leptochloa chinensis)
How it was run: as §2
For `Cc1nn(C)c(=O)c(-c2c(-c3ccc(OC(F)F)cc3)sc3ccc(F)cc23)c1OC(=S)Sc1ccccc1` [2-298], the “herbicidal effect on D: Chinese sprangletop” value was 3 (Herbicidal rate of 40% or more and less than 70%).
With `Cc1nn(C)c(=O)c(-c2c(-c3ccc(OC(F)F)cc3)sc3ccc(F)cc23)c1OCC(=O)c1ccccc1` [2-305] the “herbicidal effect on D: Chinese sprangletop” value was 5 (Herbicidal rate of 90% or more (almost completely withered)).

Each molecule was assayed on lambsquarters (assay: Test Example 5: herbicidal effect by foliage application, plastic box (Table 20, symbol O)). Conditions: foliage application, AAH 320 g/ha, evaluated three weeks after application.
Format: in vivo, lambsquarters (Chenopodium album)
How it was run: as §3
In the case of `Cc1nn(C)c(=O)c(-c2c(-c3ccc(OC(F)F)cc3)sc3ccc(F)cc23)c1OC(=S)Sc1ccccc1` [2-298], the “O: lambsquarters, herbicidal effect (criteria 0-5)” value is reported as 5 (Herbicidal rate of 90% or more (almost completely withered)).
With `Cc1nn(C)c(=O)c(-c2c(-c3ccc(OC(F)F)cc3)sc3ccc(F)cc23)c1OCC(=O)c1ccccc1` [2-305] the “O: lambsquarters, herbicidal effect (criteria 0-5)” value was 5 (Herbicidal rate of 90% or more (almost completely withered)).

Each molecule was assayed on southern crabgrass (assay: Test Example 4: herbicidal effect by soil treatment (Table 19, symbol F)). Conditions: amount of applied herbicide 320 g/ha.
Format: in vivo, southern crabgrass (Digitaria ciliaris)
How it was run: as §1
In the case of `Cc1nn(C)c(=O)c(-c2c(-c3ccc(OC(F)F)cc3)sc3ccc(F)cc23)c1OC(=S)Sc1ccccc1` [2-298], the “herbicidal effect on F: southern crabgrass” value is reported as 0 (Herbicidal rate of 5% or less (almost no effect)).
In the case of `Cc1nn(C)c(=O)c(-c2c(-c3ccc(OC(F)F)cc3)sc3ccc(F)cc23)c1OCC(=O)c1ccccc1` [2-305], the “herbicidal effect on F: southern crabgrass” value is reported as 0 (Herbicidal rate of 5% or less (almost no effect)).
